Like-named read-outs stand apart in the source and are kept apart here.
Columns and labels:
[1] = biological target: EcCdnD (Enterobacter hormaechei, UniProt P0DSP4); assay type: biochemical; settings: 10 mM MgCl2, 50 mM CAPSO pH 9.4, 37 °C
[2] = biological target: T1, AbCdnD (Acinetobacter sp. ATCC 27244, UniProt C0VHD2); test: cyclic oligonucleotide synthesis; assay type: biochemical; settings: K+, Mg2+, Mn2+, pH 9.0-9.4, 37 °C
T1 sequence (C0VHD2 1-343): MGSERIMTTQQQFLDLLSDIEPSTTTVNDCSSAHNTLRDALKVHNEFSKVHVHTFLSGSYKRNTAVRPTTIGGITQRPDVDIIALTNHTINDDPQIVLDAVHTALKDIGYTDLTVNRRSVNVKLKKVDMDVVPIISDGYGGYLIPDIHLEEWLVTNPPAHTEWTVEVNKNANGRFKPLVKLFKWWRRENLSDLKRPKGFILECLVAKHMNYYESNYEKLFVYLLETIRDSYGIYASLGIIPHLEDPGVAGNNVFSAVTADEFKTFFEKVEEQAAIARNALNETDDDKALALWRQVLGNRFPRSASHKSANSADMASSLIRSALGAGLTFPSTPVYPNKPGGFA

[3] = biological target: T2, EcCap4 K74A (Enterobacter cloacae, UniProt P0DUD5 1-499, K74A); test: EMSA
T2 sequence: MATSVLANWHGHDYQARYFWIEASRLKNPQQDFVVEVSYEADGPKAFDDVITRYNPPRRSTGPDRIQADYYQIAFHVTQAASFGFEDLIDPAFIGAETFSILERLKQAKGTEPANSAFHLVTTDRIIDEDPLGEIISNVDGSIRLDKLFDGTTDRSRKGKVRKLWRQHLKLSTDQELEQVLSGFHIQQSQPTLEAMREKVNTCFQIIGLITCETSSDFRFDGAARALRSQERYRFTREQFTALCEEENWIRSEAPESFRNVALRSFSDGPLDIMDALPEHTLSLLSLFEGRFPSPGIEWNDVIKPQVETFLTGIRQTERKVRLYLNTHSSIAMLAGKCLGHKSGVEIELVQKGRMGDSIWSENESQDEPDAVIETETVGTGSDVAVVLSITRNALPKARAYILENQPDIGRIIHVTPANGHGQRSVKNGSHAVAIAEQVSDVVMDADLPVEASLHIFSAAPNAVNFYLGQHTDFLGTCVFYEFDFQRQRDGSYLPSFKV

[4] = biological target: AbCap4 K69A (Acinetobacter baumannii, UniProt C0VHC9 1-462, K69A); test: EMSA

## Nc1ncnc2c1ncn2[C@@H]1O[C@H](COP(=O)(O)OP(=O)(O)OP(=O)(O)O)[C@@H](O)[C@H]1O [ATP]
[1]; co-substrate GTP, labelled compound
  TLC with 32P-label: EcCdnD: ATP, GTP
[2]
  cyclic oligonucleotide synthesis; AbCap4 activation, TLC, HPLC: ATP is necessary and sufficient to allow AbCdnD to synthesize the activating nucleotide second messenger

## Nc1nc2c(ncn2[C@@H]2O[C@H](COP(=O)(O)OP(=O)(O)OP(=O)(O)O)[C@@H](O)[C@H]2O)c(=O)[nH]1 [GTP]
[1]; co-substrate ATP
  TLC with 32P-label: EcCdnD: ATP, GTP

B1: DNA45 (45 bp DNA) (dsDNA)
DNA 1: TACAGATCTACTAGTGATCTATGACTGATCTGTACATGATCTACA
DNA 2: TGTAGATCATGTACAGATCAGTCATAGATCACTAGTAGATCTGTA
[3]
  binding result: binds
[4]
  binding result: binds
